Test results published in ChEMBL document CHEMBL3785074, “Molecular modeling and snake venom phospholipase A2 inhibition by phenolic compounds: Structure-activity relationship” (Eur J Med Chem, 2016).
Activity calls are given as the source filed them. No cut-off for these calls is given here.

How the values were obtained:
Naja kaouthia [1] = test system: Naja kaouthia
Description: Protective activity against Naja kaouthia venom-induced mortality in Swiss albino mouse at 100 mmol, iv by measuring venom LD50 administered immediately after venom injection measured after 24 hrs (Rvb = 2.82 ug)

Daboia russelii [2] = test system: Daboia russelii
[3] = (§1) Protective activity against Daboia russellii venom-induced hemorrhage in Swiss albino mouse at 100 mmol, iv assessed as hemorhagic lesion by measuring […] administered immediately after venom injection measured after 24 hrs (Rvb =5 ug); format: functional, Daboia russelii
[4] = Protective activity against Daboia russellii venom-induced hemorrhage in intradermally dosed Swiss albino mouse at 100 mmol assessed as hemorhagic lesion by measuring minimal […] dose preincubated with venom for 1 hr followed by administration to mouse measured after 24 hrs (reference value: 5 ug); format: functional, Daboia russelii
[5] = Protective activity against Daboia russellii venom-induced hemorrhage in intradermally dosed Swiss albino mouse at 100 mmol assessed as hemorhagic lesion preincubated with venom for 1 hr followed by administration to mouse measured after 24 hrs relative to untreated control; format: functional, Daboia russelii
Daboia russelii [6] = assay: (§2) Protective activity against Daboia russellii venom-induced mortality in Swiss albino mouse at 100 mmol, iv by measuring venom LD50 administered immediately after venom injection measured after 24 hrs (reference value: 2.28ug); format: functional
Naja kaouthia [7] = test system: Naja kaouthia; remark: listed apart in the source
[8] = Lipophilicity, log P of compound; format: physicochemical; details: octanol/water; read-out: logP
[9] = Protective activity against Daboia russellii venom-induced hemorrhage in Swiss albino mouse at 100 mmol, iv assessed as hemorhagic lesion administered immediately after venom injection measured after 24 hrs relative to untreated control; format: functional, Daboia russelii
[10] = Protective activity against Daboia russellii venom-induced mortality in Swiss albino mouse at 100 mmol, iv preincubated with venom for 1 hr followed by administration to mouse measured after 24 hrs relative to untreated control; format: functional, Daboia russelii
Daboia russelii [11] = assay: as §1; format: functional
[12] = Protective activity against Naja kaouthia venom-induced mortality in Swiss albino mouse at 100 mmol, iv preincubated with venom for 1 hr followed by administration to mouse measured after 24 hrs relative to untreated control; format: functional
[13] = Protective activity against Naja kaouthia venom-induced mortality in Swiss albino mouse at 100 mmol, iv by measuring venom LD50 preincubated with venom for 1 hr followed by administration to mouse measured after 24 hrs (reference value: 2.82 ug); format: functional
[14] = Protective activity against Daboia russellii venom-induced mortality by measuring venom LD50 in Swiss albino mouse at 100 mmol, iv preincubated with venom for 1 hr followed by administration to mouse measured after 24 hrs (reference value: 2.28 ug); format: functional, Daboia russelii
[15] = as §2; format: functional, Daboia russelii
[16] = Protective activity against Daboia russellii venom-induced mortality in Swiss albino mouse at 100 mmol, iv administered immediately after venom injection measured after 24 hrs relative to untreated control; format: functional, Daboia russelii
[17] = Protective activity against Naja kaouthia venom-induced mortality in Swiss albino mouse at 100 mmol, iv by measuring venom LD50 administered immediately after venom injection measured after 24 hrs (reference value: 2.82 ug); format: functional
[18] = Protective activity against Naja kaouthia venom-induced mortality in Swiss albino mouse at 100 mmol, iv administered immediately after venom injection measured after 24 hrs relative to untreated control; format: functional
[19] = Protective activity against Daboia russellii venom-induced mortality in iv dosed Swiss albino mouse administered 30 mins after venom injection relative to untreated control; format: functional, Daboia russelii
Daboia russelii [20] = assay: Protective activity against Daboia russellii venom-induced mortality in iv dosed Swiss albino mouse administered immediately after venom injection relative to untreated control; format: functional, organism-based

SMILES | LD50 (Naja kaouthia [1]) | LD50 (Daboia russelii [2]) | MHC [3] | MHC [4] | fold change (FC) [5] | LD50 (Daboia russelii [6]) | LD50 (Naja kaouthia [7]) | logP [8] | fold change (FC) [9] | fold change (FC) [10] | MHC (Daboia russelii [11]) | fold change (FC) [12] | LD50 [13] | LD50 [14] | LD50 [15] | fold change (FC) [16] | LD50 [17] | fold change (FC) [18] | Activity [19] | Activity (Daboia russelii [20])
COc1ccccc1OC [1,2-DIMETHOXYBENZENE] | inactive | inactive | 5 µg | 10 µg | 2 | inactive | inactive | 1.44 | 1 |  |  |  |  |  |  |  |  |  |  | 
CCCCCCCOc1ccc(C=O)c(O)c1 | inactive |  |  | 5 µg | 1 | inactive |  |  |  | 2.6 | inactive | 1 | 3 µg | 6 µg |  |  |  |  |  | 
O=Cc1cc(O)ccc1O | inactive |  | 15 µg | 35 µg | 7 |  |  | 1.53 | 3 | 2.1 |  | 1 | 3 µg | 5 µg | 50 µg | 1.25 |  |  |  | 
O=Cc1cccc(O)c1 [3-HYDROXYBENZALDEHYDE] |  |  | 15 µg | 30 µg | 6 |  |  |  | 3 | 2.6 |  | 1 |  |  |  | 1.25 |  |  |  | 
COc1cc(C=O)ccc1O [VANILLIN] |  |  | 5 µg | 20 µg | 4 |  |  | 1.87 | 1 | 9.8 |  | 3.2 | 9 µg | 22 µg | 150 µg | 3.75 | 10 µg | 2 |  | 
COc1ccc(C=O)cc1 | inactive | inactive | 5 µg | 15 µg | 3 | inactive | inactive | 1.19 | 1 |  |  |  |  |  |  |  |  |  |  | 
Oc1ccccc1 [PHENOL] | inactive | inactive | 5 µg | 10 µg | 2 | inactive | inactive | 1.76 | 1 |  |  |  |  |  |  |  |  |  |  | 
COc1ccc(OC)cc1 [1,4-DIMETHOXYBENZENE] | inactive | inactive | 5 µg | 10 µg | 2 | inactive | inactive | 1.47 | 1 |  |  |  |  |  |  |  |  |  |  | 
CCCOc1ccc(C=O)c(O)c1 | inactive | inactive |  | 5 µg | 1 | inactive | inactive |  |  |  | inactive |  |  |  |  |  |  |  |  | 
O=Cc1ccc(O)cc1 [4-HYDROXYBENZALDEHYDE] | inactive |  | 10 µg | 15 µg | 3 |  |  | 1.15 | 2 | 2.6 |  | 1 | 3 µg | 6 µg | 50 µg | 1.25 |  |  |  | 
Oc1cccc(O)c1 [RESORCINOL] | inactive | inactive | 10 µg | 10 µg | 2 | inactive | inactive | 1.48 | 2 |  |  |  |  |  |  |  |  |  |  | 
COc1ccc(O)c(C=O)c1 |  |  | 10 µg | 20 µg | 4 |  |  | 1.93 | 2 | 4.9 |  | 2.1 | 6 µg | 11 µg | 100 µg | 2.5 | 8 µg | 1.6 |  | 
O=Cc1cccc(O)c1O | inactive |  | 10 µg | 40 µg | 8 | inactive |  | 1.19 | 2 | 2.1 |  | 1 | 3 µg | 5 µg |  |  |  |  |  | 
COc1ccccc1C=O [2-METHOXYBENZALDEHYDE] | inactive |  | 5 µg | 10 µg | 2 |  |  | 1.15 | 1 | 8 |  | 2.1 | 6 µg | 18 µg | 100 µg | 2.5 |  |  |  | 
CCOc1ccc(C=O)c(O)c1 | inactive | inactive |  | 5 µg | 1 | inactive | inactive |  |  |  | inactive |  |  |  |  |  |  |  |  | 
CCOc1cc(C=O)ccc1O [ETHYL VANILLIN] |  |  | 10 µg | 15 µg | 3 |  |  | 1.81 | 2 | 4.9 |  | 1 | 3 µg | 11 µg | 100 µg | 2.5 | 10 µg | 2 |  | 
COc1ccc(/C=N/O)c(OC)c1 | inactive |  |  | 5 µg | 1 |  |  |  |  | 2.6 | inactive | 1 | 3 µg | 6 µg | 50 µg | 1.25 |  |  |  | 
Oc1ccccc1O [CATECHOL] | inactive | inactive | 15 µg | 25 µg | 5 | inactive | inactive | 1.48 | 3 |  |  |  |  |  |  |  |  |  |  | 
COc1cccc(OC)c1 [1,3-DIMETHOXYBENZENE] | inactive | inactive | 5 µg | 10 µg | 2 | inactive | inactive | 1.44 | 1 |  |  |  |  |  |  |  |  |  |  | 
COc1ccc(C=O)c(OC)c1 |  |  | 10 µg | 25 µg | 5 |  |  | 0.97 | 2 | 9.8 |  | 3.2 | 9 µg | 22 µg | 100 µg | 2.5 | 8 µg | 1.6 | 40% | Active
COc1ccccc1 [ANISOLE] | inactive | inactive | 5 µg | 10 µg | 2 | inactive | inactive | 1.44 | 1 |  |  |  |  |  |  |  |  |  |  | 
COc1ccc(C=O)cc1O [ISOVANILLIN] | inactive | inactive | 10 µg | 10 µg | 2 | inactive | inactive |  | 2 |  |  |  |  |  |  |  |  |  |  | 
COc1cccc(C=O)c1 | inactive |  | 5 µg | 15 µg | 3 |  |  | 1.15 | 1 | 11.2 |  | 3.2 | 9 µg | 25 µg | 100 µg | 2.5 |  |  |  | 
O=Cc1ccc(O)c(O)c1 [PROTOCATECHUALDEHYDE] | inactive |  | 20 µg | 60 µg | 12 |  |  | 2 | 4 | 2.6 |  | 1 | 3 µg | 6 µg | 50 µg | 1.25 |  |  |  | 
Oc1ccc(O)cc1 [HYDROQUINONE] | inactive | inactive | 10 µg | 20 µg | 4 | inactive | inactive | 1.48 | 2 |  |  |  |  |  |  |  |  |  |  | 
